pIC50: −log10 of the molar value. Activity calls are given as the source filed them. No cut-off for these calls is given here.

The target in data set [1] is Tissue-type plasminogen activator (Homo sapiens, UniProt P00750). The data set can be described thus: Inhibition of human tPA.
Data set [2] deals with Plasminogen (Homo sapiens, UniProt P00747). Description: Inhibition of human plasmin.
Data set [3] concerns the target Urokinase-type plasminogen activator (Homo sapiens, UniProt P00749). Description: Inhibition of human uPA.
Data set [4] relates to Rattus norvegicus. Description: Total AUC in rat at 2 mg/kg, po. The format is ADME, organism-based. Particulars: in vivo. Set-up: dose 2 mg/kg, route oral, time AUCmax.
A short description of data set [5]: Oral bioavailability in rat at 2 mg/kg. The note with it: in vivo. The format is ADME, organism-based.
Data set [6] can be described thus: Cmax in rat at 2 mg/kg, po. The format is ADME, organism-based. Set-up: dose 2 mg/kg, route oral. The note with it: in vivo.
The test system of data set [7] is Rattus norvegicus. Description: Volume of distribution in rat at 2 mg/kg, po. The format is ADME, organism-based. Particulars: in vivo.
The nature of data set [8]: Half life in rat at 2 mg/kg, po. Format: ADME, organism-based. The note with it: in vivo.
Data set [9] can be described thus: Clearance in rat at 2 mg/kg, po. Format: ADME, organism-based. The note with it: in vivo.
The subject of data set [10] is Mus musculus. Description: Prevention of multiple sclerosis development in acute SJL mouse EAE model at 25 to 50 mg/kg, po bid. The format is functional, organism-based.
Data set [11] has as its target Tissue-type plasminogen activator (Mus musculus, UniProt P11214). The data set can be described thus: Inhibition of mouse tPA.
Data set [12] has as its target Plasminogen (Mus musculus, UniProt P20918). The data set can be described thus: Inhibition of mouse plasmin.
The subject of data set [13] is Mus musculus. Description: Prevention of multiple sclerosis development in chronic SJL mouse EAE model at 10 to 25 mg/kg, po bid. The format is functional, organism-based.
Data set [14] relates to Mus musculus. Description: Prevention of multiple sclerosis development in chronic SJL mouse EAE model at 50 mg/kg, po bid. The format is functional, organism-based.
Data set [15] concerns the target Urokinase-type plasminogen activator (Mus musculus, UniProt P06869). The data set can be described thus: Inhibition of mouse uPA.

Chain of Plasminogen (Homo sapiens, UniProt P00747) (P00747 97-580 limits assumed): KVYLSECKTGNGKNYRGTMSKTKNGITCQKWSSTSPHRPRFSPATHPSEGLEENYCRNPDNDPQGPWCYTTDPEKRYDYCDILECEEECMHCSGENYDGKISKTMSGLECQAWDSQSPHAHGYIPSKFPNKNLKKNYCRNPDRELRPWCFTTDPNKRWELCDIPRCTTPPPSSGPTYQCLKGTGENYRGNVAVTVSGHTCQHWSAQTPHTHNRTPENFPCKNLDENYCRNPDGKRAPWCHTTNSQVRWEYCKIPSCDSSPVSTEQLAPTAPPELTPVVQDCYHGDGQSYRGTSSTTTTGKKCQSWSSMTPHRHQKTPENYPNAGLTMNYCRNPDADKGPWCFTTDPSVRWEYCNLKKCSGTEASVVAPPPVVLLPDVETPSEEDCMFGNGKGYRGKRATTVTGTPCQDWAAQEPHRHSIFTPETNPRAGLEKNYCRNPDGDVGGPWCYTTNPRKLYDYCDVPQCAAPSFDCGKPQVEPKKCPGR
Chain of Plasminogen (Homo sapiens, UniProt P00747) (P00747 581-810 limits assumed): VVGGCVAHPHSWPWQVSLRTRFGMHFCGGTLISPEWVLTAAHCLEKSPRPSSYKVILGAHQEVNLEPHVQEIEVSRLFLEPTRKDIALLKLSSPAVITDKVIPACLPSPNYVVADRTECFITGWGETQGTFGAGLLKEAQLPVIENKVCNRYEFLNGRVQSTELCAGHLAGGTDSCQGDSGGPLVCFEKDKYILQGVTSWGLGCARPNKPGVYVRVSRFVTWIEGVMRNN
Chain of Tissue-type plasminogen activator (Homo sapiens, UniProt P00750) (P00750 whole entry): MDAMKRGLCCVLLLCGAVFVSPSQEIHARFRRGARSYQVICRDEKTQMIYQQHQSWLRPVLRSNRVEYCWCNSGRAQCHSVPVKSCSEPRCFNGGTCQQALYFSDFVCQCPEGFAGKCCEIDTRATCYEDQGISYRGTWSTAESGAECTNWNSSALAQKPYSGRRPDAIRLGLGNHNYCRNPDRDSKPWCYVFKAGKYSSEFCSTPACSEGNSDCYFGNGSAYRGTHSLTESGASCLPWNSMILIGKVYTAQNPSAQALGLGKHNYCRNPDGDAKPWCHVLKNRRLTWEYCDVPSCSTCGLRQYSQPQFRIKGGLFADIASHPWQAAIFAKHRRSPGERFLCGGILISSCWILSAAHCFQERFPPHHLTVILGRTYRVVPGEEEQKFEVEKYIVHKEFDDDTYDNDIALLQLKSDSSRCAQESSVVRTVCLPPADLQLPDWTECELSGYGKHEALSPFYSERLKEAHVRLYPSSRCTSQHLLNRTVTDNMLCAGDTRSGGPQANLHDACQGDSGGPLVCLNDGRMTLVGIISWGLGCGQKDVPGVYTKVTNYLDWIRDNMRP
Chain of Plasminogen (Mus musculus, UniProt P20918) (P20918 98-581 limits assumed): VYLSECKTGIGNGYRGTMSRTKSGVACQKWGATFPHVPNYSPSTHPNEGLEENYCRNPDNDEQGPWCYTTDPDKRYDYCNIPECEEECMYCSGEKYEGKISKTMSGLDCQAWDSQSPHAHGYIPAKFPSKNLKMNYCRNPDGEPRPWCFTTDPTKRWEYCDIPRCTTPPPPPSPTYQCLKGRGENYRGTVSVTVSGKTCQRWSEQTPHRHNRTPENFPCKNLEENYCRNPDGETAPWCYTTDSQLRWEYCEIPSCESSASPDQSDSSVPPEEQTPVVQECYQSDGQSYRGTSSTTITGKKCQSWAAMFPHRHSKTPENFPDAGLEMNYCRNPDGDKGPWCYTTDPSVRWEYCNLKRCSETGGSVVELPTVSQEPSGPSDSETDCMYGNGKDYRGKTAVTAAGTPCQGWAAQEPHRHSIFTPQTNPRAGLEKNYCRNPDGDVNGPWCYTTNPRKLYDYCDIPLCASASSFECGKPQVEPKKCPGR
Chain of Plasminogen (Mus musculus, UniProt P20918) (P20918 582-812 limits assumed): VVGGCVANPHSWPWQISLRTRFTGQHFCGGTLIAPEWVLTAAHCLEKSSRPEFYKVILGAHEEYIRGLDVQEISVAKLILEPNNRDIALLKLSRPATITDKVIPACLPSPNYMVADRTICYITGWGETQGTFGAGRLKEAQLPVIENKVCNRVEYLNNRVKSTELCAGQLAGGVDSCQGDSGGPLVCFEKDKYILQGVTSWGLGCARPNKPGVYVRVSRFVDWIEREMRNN
Chain of Tissue-type plasminogen activator (Mus musculus, UniProt P11214) (P11214 whole entry): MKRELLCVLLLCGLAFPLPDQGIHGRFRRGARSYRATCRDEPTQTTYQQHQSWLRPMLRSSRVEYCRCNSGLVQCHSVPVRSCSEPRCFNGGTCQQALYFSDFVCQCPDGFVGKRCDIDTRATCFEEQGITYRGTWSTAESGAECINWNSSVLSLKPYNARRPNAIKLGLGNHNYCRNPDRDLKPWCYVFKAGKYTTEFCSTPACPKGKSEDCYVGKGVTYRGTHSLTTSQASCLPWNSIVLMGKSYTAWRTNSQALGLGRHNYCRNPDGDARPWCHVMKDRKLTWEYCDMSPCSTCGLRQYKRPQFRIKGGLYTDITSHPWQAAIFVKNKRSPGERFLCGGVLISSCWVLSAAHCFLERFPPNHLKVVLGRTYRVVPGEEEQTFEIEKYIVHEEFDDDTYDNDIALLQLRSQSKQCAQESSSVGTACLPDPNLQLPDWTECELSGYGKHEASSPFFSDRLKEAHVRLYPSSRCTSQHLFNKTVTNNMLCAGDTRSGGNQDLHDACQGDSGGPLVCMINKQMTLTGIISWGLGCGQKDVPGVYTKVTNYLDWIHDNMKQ
Chain of Urokinase-type plasminogen activator (Mus musculus, UniProt P06869) (P06869 21-178 limits assumed): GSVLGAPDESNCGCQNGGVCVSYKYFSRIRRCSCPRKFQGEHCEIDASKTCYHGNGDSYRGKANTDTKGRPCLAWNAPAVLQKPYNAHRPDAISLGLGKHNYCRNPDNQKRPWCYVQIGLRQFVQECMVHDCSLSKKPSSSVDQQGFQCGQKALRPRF
Chain of Urokinase-type plasminogen activator (Mus musculus, UniProt P06869) (P06869 180-433 limits assumed): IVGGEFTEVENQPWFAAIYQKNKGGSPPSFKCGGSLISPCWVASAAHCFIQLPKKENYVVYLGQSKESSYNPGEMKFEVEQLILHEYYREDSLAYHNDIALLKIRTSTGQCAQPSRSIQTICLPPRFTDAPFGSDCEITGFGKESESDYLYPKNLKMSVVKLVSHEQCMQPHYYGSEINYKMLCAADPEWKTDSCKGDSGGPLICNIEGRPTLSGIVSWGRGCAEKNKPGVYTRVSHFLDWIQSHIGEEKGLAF

In general, pIC50 refers to the negative decadic logarithm of the IC50, by convention in mol/L. Low values mean a large IC50, high ones a small IC50. Consider `Cc1cc(Oc2nc(O[C@@H](C(=O)O)C(C)(C)C)c(F)cc2F)cc(-c2cccc(CN)c2)c1`, for which the results for the pIC50 (in data set [1]; against Plasminogen [2]; in data set [3]) were 6.33, 5.72 and 7.29, respectively.
Consider `C[C@@H](Oc1nc(Oc2cccc(-c3cccc(CN)c3)c2)c(F)cc1F)C(=O)O`, for which the figures for the pIC50 (against Plasminogen [2]; in [3]) were 5.29 and 6.44, respectively.
A word on the AUC: it is concentration integrated over time. The low end stands for less exposure, the high end for more exposure. What is called bioavailability is the share of a dose that reaches the circulation, judged against a reference dose that is usually intravenous. High values mean much systemic uptake, low ones little systemic uptake. Usually Cmax stands for the peak of the concentration-time curve. A word on the half-life: it is the time in which the quantity being followed falls by half. Higher therefore signals slow loss. As usually defined, the CL/F is the apparent clearance, not corrected for the fraction that reaches the circulation. The molecule `CC[C@@H](Oc1nc(Oc2cccc(-c3cccc(CN)c3)c2)c(F)cc1F)C(=O)O` returned an exposure (AUC) in the data set on Rattus norvegicus [4] of 2.2 µg·h/mL. For the same molecule, the bioavailability in data set [5] came to 55%. Besides, the pIC50 in data set [1] is 5.80; against Plasminogen [2], 5.73; in [3], 6.63. This molecule had a peak concentration (Cmax) in data set [6] of 0.64 µg/mL. The same molecule registered a Vd in the data set on Rattus norvegicus [7] of 0.76 L/kg. Further, in data set [8], the half-life is 2.8 h. This molecule yielded a CL/F in data set [9] of 0.504 L/h/kg.
Consider `NCc1cccc(-c2cccc(Oc3nc(OCC(=O)O)c(F)cc3F)c2)c1`, for which the pIC50 in [3] is 5.48.
With `COc1cc(Oc2nc(O[C@@H](C(=O)O)C(C)(C)C)c(F)cc2F)cc(-c2cccc(CN)c2)c1`, the figures for the pIC50 (in [1]; against Plasminogen [2]; in data set [3]) were 5.73, 5.48 and 7.64, respectively.
`CC[C@H](Oc1nc(Oc2cccc(-c3cccc(CN)c3)c2)c(F)cc1F)C(=O)O`: the pIC50 in data set [1] is less than 4.52; on Plasminogen [2] it was less than 4.52; in data set [3] it was 5.14.
As for `CC(C)(C)[C@@H](Oc1nc(Oc2cc(C#N)cc(-c3cccc(CN)c3)c2)c(F)cc1F)C(=O)O`, the figures for the pIC50 (in data set [1]; on Plasminogen [2]; in data set [3]) were 5.24, 5.27 and 7.47, respectively.
For `CC(C)(C)[C@@H](Oc1nc(Oc2cccc(-c3cccc(CN)c3)c2)c(F)cc1F)C(=O)O` the same measures were 5.84, 5.26 and 7.08.
In the case of `CC[C@@H](Oc1nc(Oc2cc(C)cc(-c3cccc(CN)c3)c2)c(F)cc1F)C(=O)O`, the AUC in the data set with Rattus norvegicus [4] was found to be 13.2 µg·h/mL. For the same molecule, in [5], the bioavailability worked out at 30%. Also, the result in the data set with Mus musculus [10] and with Mus musculus [14] was Active. Further, the pIC50 in data set [1] was 5.80; in [11], 6.04; against Plasminogen [2], 5.88; against Plasminogen [12], 5.80; in data set [15], 6.39; in data set [3], 7.10. In addition, the Vd with Rattus norvegicus [7] was 0.6 L/kg. The half-life in [8] was 2.2 h. Moreover, the result in the data set with Mus musculus [13] was inactive. The CL/F in [9] amounted to 0.24 L/h/kg.

The values are drawn from ChEMBL document CHEMBL4265914, “Discovery of selective urokinase plasminogen activator (uPA) inhibitors as a potential treatment for multiple sclerosis” (Bioorg Med Chem Lett, 2018).
